Test results: ChEMBL document CHEMBL4665787, “Bifunctional and Unusual Amino Acid β- or γ-Ester Prodrugs of Nucleoside Analogues for Improved Affinity to ATB and Enhanced Metabolic Stability: An Application to Floxuridine” (J Med Chem, 2020)
Activity calls are given as the source filed them. The rule behind the calls is not given here.

Legend:
[1] = target: T1, Sodium- and chloride-dependent neutral and basic amino acid transporter B(0+) (Homo sapiens, UniProt Q9UN76); assay: Substrate activity at SLC6A14 (unknown origin) expressed in Xenopus laevis oocytes assessed as inhibition of glycine uptake incubated for 10 mins by HPLC/MS/MS analysis; format: cell-based, Oocyte
T1 sequence (Q9UN76 whole entry): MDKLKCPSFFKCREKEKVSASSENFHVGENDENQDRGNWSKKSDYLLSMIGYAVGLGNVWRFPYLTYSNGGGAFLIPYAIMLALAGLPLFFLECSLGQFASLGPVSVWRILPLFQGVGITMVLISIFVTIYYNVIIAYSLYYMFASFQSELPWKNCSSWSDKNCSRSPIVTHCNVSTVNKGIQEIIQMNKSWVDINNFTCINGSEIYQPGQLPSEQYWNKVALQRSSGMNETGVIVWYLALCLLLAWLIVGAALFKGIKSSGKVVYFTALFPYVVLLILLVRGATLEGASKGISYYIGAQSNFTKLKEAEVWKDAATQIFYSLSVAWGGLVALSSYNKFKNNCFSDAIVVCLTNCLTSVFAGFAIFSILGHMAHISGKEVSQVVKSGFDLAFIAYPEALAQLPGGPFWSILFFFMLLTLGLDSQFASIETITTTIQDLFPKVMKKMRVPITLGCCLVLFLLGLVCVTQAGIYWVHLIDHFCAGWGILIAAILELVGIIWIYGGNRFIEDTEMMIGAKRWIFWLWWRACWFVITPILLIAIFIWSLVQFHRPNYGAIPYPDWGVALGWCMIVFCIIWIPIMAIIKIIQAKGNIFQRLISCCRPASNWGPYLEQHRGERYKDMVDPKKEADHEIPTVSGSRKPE

[2] = target: T1, Sodium- and chloride-dependent neutral and basic amino acid transporter B(0+); assay: Substrate activity at SLC6A14 (unknown origin) expressed in Xenopus laevis oocytes assessed as ABT0+ mediated drug uptake at 0.5 mM incubated for 10 mins by HPLC analysis; format: ADME, cell-based; details: oocyte, 500 µM
[3] = target: T2, Solute carrier family 15 member 1 (Homo sapiens, UniProt P46059); assay: Substrate activity at PEPT1 (unknown origin) expressed in MDCK cells assessed as PEPT1 mediated drug uptake at 0.5 mM incubated for 10 mins by HPLC analysis; format: ADME, cell-based; details: 500 µM
T2 sequence (P46059 whole entry): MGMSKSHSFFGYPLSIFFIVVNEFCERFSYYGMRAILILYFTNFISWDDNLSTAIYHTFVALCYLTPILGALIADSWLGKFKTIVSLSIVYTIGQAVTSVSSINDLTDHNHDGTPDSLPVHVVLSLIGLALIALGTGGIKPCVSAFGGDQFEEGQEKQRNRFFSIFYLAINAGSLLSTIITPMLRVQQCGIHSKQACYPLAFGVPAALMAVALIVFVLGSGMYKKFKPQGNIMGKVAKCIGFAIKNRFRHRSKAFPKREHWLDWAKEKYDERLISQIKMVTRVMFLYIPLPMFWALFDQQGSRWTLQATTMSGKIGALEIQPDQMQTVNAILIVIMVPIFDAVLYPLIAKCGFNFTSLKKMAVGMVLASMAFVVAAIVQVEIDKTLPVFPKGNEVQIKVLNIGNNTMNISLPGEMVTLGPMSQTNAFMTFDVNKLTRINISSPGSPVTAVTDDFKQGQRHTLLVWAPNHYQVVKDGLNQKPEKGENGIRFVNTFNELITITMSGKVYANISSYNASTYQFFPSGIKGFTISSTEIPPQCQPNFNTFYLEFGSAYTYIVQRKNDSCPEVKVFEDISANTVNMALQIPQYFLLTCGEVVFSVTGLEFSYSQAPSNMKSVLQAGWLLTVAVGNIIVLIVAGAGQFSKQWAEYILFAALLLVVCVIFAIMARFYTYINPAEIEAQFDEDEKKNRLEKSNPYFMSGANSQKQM

[4] = Selectivity ratio of substrate activity at SLC6A14 (unknown origin) expressed in Xenopus laevis oocytes assessed as ABT0+ mediated drug uptake to drug uptake in Xenopus laevis oocytes; parameters: species or system Oocyte
[5] = target: T3, Sodium- and chloride-dependent neutral and basic amino acid transporter B(0+) (Homo sapiens) (UniProt Q9UN76); assay: Substrate activity at SLC6A14 (unknown origin) expressed in Xenopus laevis oocytes assessed as inhibition of drug uptake at 0.5 mM incubated for 10 mins in presence of glycine by HPLC analysis relative to control; format: cell-based; details: Oocyte
T3 sequence (whole entry): T1 sequence (Q9UN76 whole entry)

[6] = target: T3, Sodium- and chloride-dependent neutral and basic amino acid transporter B(0+) (Homo sapiens); assay: Substrate activity at SLC6A14 (unknown origin) expressed in Xenopus laevis oocytes assessed as increase in ABT0+ mediated drug uptake at 1 mM in presence of Cl- ion by HPLC analysis; format: cell-based; details: Oocyte
[7] = Half life of compound in human MDA-MB-231 cell homogenate; format: ADME, tissue-based
MDA-MB-231 = assay: Potency index, ratio of FUdR GI50 to test compound GI50 for growth inhibition of human MDA-MB-231 cells; format: functional
[8] = Toxicity in NOD SCID nude mouse xenografted with human ZR-75-1 cells assessed as body weight at 90 mg/kg, iv for 20 days (reference value: 29.2 +/- 2.5g); format: organism-based; details: in vivo, 480 h, time 20 day
[9] = Cmax in NOD SCID nude mouse plasma xenografted with ZR-75-1 cells assessed as fluorouracil at 90 mg/kg, iv measured up to 24 hrs by HPLC-MS/MS analysis; format: ADME, organism-based; parameters: route intravenous, dose 90 mg/kg, time <=24; details: in vivo
[10] = Cmax in NOD SCID nude mouse tumour xenografted with ZR-75-1 cells assessed as floxuridine; 5-fluoro-2-deoxyuridine concentration at 90 mg/kg, iv measured up to 24 hrs by HPLC-MS/MS analysis; format: ADME, organism-based, Neoplasm; parameters: route intravenous, dose 90 mg/kg, time <=24; details: in vivo
[11] = AUC (0 to t) in NOD SCID nude mouse plasma xenografted with ZR-75-1 cells at 90 mg/kg, iv measured up to 24 hrs by HPLC-MS/MS analysis; format: ADME, organism-based; parameters: route intravenous, dose 90 mg/kg, time <=24
[12] = AUC (0 to t) in NOD SCID nude mouse plasma xenografted with ZR-75-1 cells assessed as floxuridine; 5-fluoro-2-deoxyuridine AUC at 90 mg/kg, iv measured up to 24 hrs by HPLC-MS/MS analysis; format: ADME, organism-based; parameters: route intravenous, dose 90 mg/kg, time <=24; details: in vivo
[13] = AUC (0 to t) in NOD SCID nude mouse tumour xenografted with ZR-75-1 cells assessed as floxuridine; 5-fluoro-2-deoxyuridine AUC at 90 mg/kg, iv measured up to 24 hrs by HPLC-MS/MS analysis; format: ADME, organism-based, Neoplasm; details: in vivo

- IC50 [1]: 820 µM
- Drug uptake [2]: 2.97 nmol/mg/min
- Drug uptake [3]: < 0.04 nmol/mg/min
- inhibition [5]: 50%
- Activity [6]: Active
- half-life [7]: 11.1 min
- Cmax [9]: 67.8 ng/mL
- Cmax [10]: 700.2 ng/g
- AUC(0-t) at 24 h [11]: 5070 ng·h/mL
- AUC [12]: 1172.9 ng·h/mL
- AUCt [13]: 4600.1 ng·h/g
SMILES: N[C@@H](CC(=O)OC[C@H]1O[C@@H](n2cc(F)c(=O)[nH]c2=O)C[C@@H]1O)C(=O)O
- Ratio [4]: 9.28
- RatioGI50 (MDA-MB-231): 7
- Activity [8]: 26.8 g
